Experimental data published in US7153979B2, “Triterpene derivatives and remedies for liver diseases” (Meiji Seika Kaisha, Ltd., priority 1996, dated 2006).

System: hepatitis induced by concanavalin A in mice
Test: Concanavalin A (Con A) hepatitis model, plasma ALT
Assay type: in vivo, BALB/c male mice
Details: 24 hr after Con A, control group 2068±518
Procedure: Effect in Concanavalin A (Con A) Hepatitis Model
Con A dissolved in physiological saline was intravenously administered at a dose of 20 mg/kg to BALB/c male mice (8 weeks in age) having a body weight of 21 to 25 g to induce hepatitis. A test compound (compound 7) was suspended in a mixed solution (control vehicle) composed of 25% dimethylsufoxide, 25% polyethylene glycol 400, and 0.25% carboxymethyl cellulose, and the suspension was subcutaneously administered 2 hr and 14 hr before the administration of Con A at three levels of dose, i.e., 0.2 mg/mouse, 1.0 mg/mouse, and 2.0 mg/mouse. A control vehicle alone was administered to a group of control mice. Twenty four hr after the administration of Con A, the mice were sacrificed under ether anesthesia to assay the alanine aminotransferase (ALT) activity, in plasma, as an index of hepatopathy.

Question: What does the source list for `CC1(C)C[C@H]2C3=CC[C@@H]4[C@@]5(C)CC[C@H](O)[C@](C)(CO)[C@@H]5CC[C@@]4(C)[C@]3(C)CC[C@@]2(C)[C@H](O)[C@@H]1O` [Compound 7, Soyasapogenol A]?
Answer: alanine aminotransferase (ALT) activity in plasma (1.0 mg/mouse subcutaneously 2 hr and 14 hr before Con A 20 mg/kg i.v.): 55±16 u/l; alanine aminotransferase (ALT) activity in plasma (2.0 mg/mouse subcutaneously 2 hr and 14 hr before Con A 20 mg/kg i.v.): 55±16 u/l
